What all share (format): physicochemical
Data set [1] in a line: Microelectrophoresis: zeta-potential of coated organic microcrystals. As to the method: The layer-by-layer assembly of polyelectrolytes onto FDA or PYR microcrystals was carried out as follows: 50 mg of finely milled core particles (FDA or PYR) were first thoroughly mixed with 12 mL of 0.2–0.4 wt % of the dispersing agent (ionic surfactant, lipid or charged polymer). Crystalline fluorescein diacetate or pyrene can be milled to fine particles using e.g. a mortar and pestle. However, also advanced ball milling procedures can be used.
The crystals were suspended by their immediate sonication for 5 min. The suspension was allowed to stand for 30 min, thus allowing the larger crystals to sediment, or gently centrifuged. The turbid white supernatant was then extracted, centrifuged and washed several times, and finally resuspended in water.
The resulting microcrystal particles were then layer-by-layer coated with PSS and PAH.^18 When positively charged surfactants or DPPC were used as the first layer, 1 mL of PSS solution (5 mg mL^−1, containing 0.5 M NaCl) was added first. PAH solution (1 mL of 5 mg mL^−1, containing 0.5 M NaCl) was added first when PSS or SDS were adsorbed onto the microcrystals. After an adsorption time of 15 min for PAH or PSS adsorption, the suspension was centrifuged at 3000 g for 5 min. The supernatant was then removed and three cycles of water washing and redispersing were applied to remove the excess unadsorbed polyelectrolyte in solution. Subsequent polyelectrolyte layers, bearing an opposite charge to that already adsorbed on the particle, were deposited in identical fashion to produce multilayer-coated microcrystals. In some cases, the fluorescently labeled polyelectrolyte, PAH-FITC, was applied (as a 2 mg mL^−1 solution containing 0.5 M NaCl) to form a fluorescent layer on the microcrystal surface.
The microelectrophoretic mobility of coated organic microcrystals was measured with a malvern Zetasizer 4 by taking the average of 5 measurements at the stationary level. The mobilities (μ) were converted to the electrophoretic potentials (ζ) using the Smoluchowski relation ζ=μη/ε, where η and ε are the viscosity and permittivity of the solution, respectively.^25 All measurements were performed on microcrystals re-dispersed in air-equilibrated pure water (pH ˜5.6).

The nature of the next data set: Solubility in water.
A short description of data set [2]: Release experiments: removal of the microcrystal core by ethanol, fluorescence of supernatant. The note with it: control without polyelectrolyte multilayer. As for the experimental part: Direct proof that a polymer multilayer cage encapsulated the microcrystals was obtained by removing the templated core. The release behaviour of the pyrene and fluoresceine diacetate molecules, from dissolution of the core templates, through the polymer capsule wall can be investigated by using fluorescence spectroscopy. Following centrifugation of the coated microcrystal suspensions that were exposed to ethanol, the supernatant was assessed for either pyrene or fluoresceine at regular time intervals.
12 mL of solvent (ethanol or ethanol/water mixtures) were dispensed into 15 mL tubes. 0.1 mL of the coated microcrystal suspension of Example 3 was then quickly added to each tube and after defined times (2, 5, 10 min etc.) the suspension was centrifuged at 3000 g for 5 min. A portion of the supernatant was removed and tested for the presence of PYR of FDA by fluorescence. For PYR, the fluorescence emission intensity of the supernatant was measured directly by using an excitation wavelength (λex) of 350 nm and monitoring the emission (λem) at 373 nm. FDA was first hydrolyzed into fluorescein either by treatment with esterase or dilute base prior to fluorescence measurement (λex=492 nm, λem=513 nm). As control experiments, the release characteristics of uncoated particles was also studied as outlined above.

The mark [3] stands for this setting: SDS-dispersed crystals, layer No. 2, coating PAH.
Where [4] appears, read: SDS-dispersed crystals, layer No. 3, coating PSS.
Setting [5] is: SDS-dispersed crystals, layer No. 4, coating PAH.
Setting [6] is: SDS-dispersed crystals, layer No. 5, coating PSS.
[7] abbreviates: SDS-dispersed crystals, layer No. 6, coating PAH-FTTC.
Where [8] appears, read: crystals, layer No. 1, coating SDS detergent, pure water pH ~5.6.

SMILES strings stand for the structures.

For the compound `CC(=O)Oc1ccc2c(c1)Oc1cc(OC(C)=O)ccc1C21OC(=O)c2ccccc21` [Fluorescein diacetate, fluorescein diacetate], the ζ-potential is on record as −50 mV in data set [1] (SDS dispersed crystals (FIG. 2a)), “+20 mV” in data set [1] (microcrystals dispersed with DPPC (FIG. 2b)) and −40 mV in data set [1] (microcrystals exposed to PSS (FIG. 2b)). For the same compound, the Zeta-potential result was “+42.9 mV” in data set [1] (setting [3]); −37.7 mV in data set [1] (setting [4]); “+51.5 mV” in data set [1] (setting [5]); −42.2 mV in data set [1] (setting [6]); “+48.2 mV” in data set [1] (setting [7]); -85 mV in data set [1] (setting [8]). For the same compound, the solubility in water entry in the data set “Solubility in water” is recorded as “very low solubility in water”.

Turning to `c1cc2ccc3cccc4ccc(c1)c2c34` [Pyrene], the Zeta-potential entry in data set [1] (setting [3]) is “+59 mV”; in data set [1] (setting [4]) it was −46.5 mV; in data set [1] (setting [5]), “+54.3 mV”; in data set [1] (setting [6]) it was −37.2 mV; in data set [1] (setting [7]), “+47.3 mV”; in data set [1] (setting [8]), −68.5 mV. In addition, in data set [1] (crystals exposed to DDDAB (FIG. 2a)), the ζ-potential entry was “+50 mV”. Moreover, the “time for removal of core upon addition of ethanol” value in data set [2] (DDDAB-dispersed (surfactant-coated) microcrystals) and in data set [2] (PSS-dispersed (PSS-coated) microcrystals) was no more than 30 min in each case.

The values are drawn from patent US7045146B2, “Templating of solid particles by polymer multilayers” (Max-Planck-Gesellschaft zur Forderung der Wissenschaften …, priority 2000, dated 2006).
